# Legend:
# Streptococcus pneumoniae [1] = assay: In vitro minimum inhibitory concentration against Penicillin susceptible Streptococcus pneumoniae (GC 6242); type: functional
# Streptococcus agalactiae [2] = assay: In vitro minimum inhibitory concentration against Streptococcus agalactiae (GC4564); type: functional
# Enterococcus faecalis [3] = assay: In vitro minimum inhibitory concentration against vancomycin-resistant Enterococcus faecalis (GC 2242); type: functional
# Staphylococcus aureus [4] = assay: In vitro minimum inhibitory concentration against Methicillin-resistant Staphylococcus aureus(GC 4541); type: functional
# Staphylococcus aureus [5] = assay: In vitro minimum inhibitory concentration against Staphylococcus aureus (10strains, including MRSA); type: functional
# Enterococcus faecalis [6] = assay: In vitro minimum inhibitory concentration against vancomycin-susceptible Enterococcus faecalis (GC 4553); type: functional
# Staphylococcus aureus [7] = assay: In vitro minimum inhibitory concentration against Methicillin-resistant Staphylococcus aureus (GC 4543); type: functional
# [8] = system: Staphylococcus haemolyticus; assay: In vitro minimum inhibitory concentration against methicillin-susceptible Coagulase-negative Staphylococci (MSCNS) (GC 4551); type: functional
# Staphylococcus aureus [9] = assay: In vitro minimum inhibitory concentration against Methicillin-resistant Staphylococcus aureus(GC 4545); type: functional
# Enterococcus faecium [10] = assay: In vitro minimum inhibitory concentration against vancomycin-resistant Enterococcus faecium (GC 2243); type: functional
# Streptococcus pneumoniae [11] = assay: In vitro minimum inhibitory concentration against Penicillin susceptible Streptococcus pneumoniae (GC 4565); type: functional
# [12] = system: Staphylococcus haemolyticus; assay: In vitro minimum inhibitory concentration against methicillin-resistant Coagulase-negative Staphylococci (MRCNS) (GC 4546)); type: functional
# Streptococcus = assay: In vitro minimum inhibitory concentration against Streptococcus Species (5 strains, including PRSP); type: functional
# Streptococcus pyogenes [13] = assay: In vitro minimum inhibitory concentration against Streptococcus pyogenes (GC 4563); type: functional
# Enterococcus faecium [14] = assay: In vitro minimum inhibitory concentration against vancomycin-resistant Enterococcus faecium (GC 4558); type: functional
# Staphylococcus aureus [15] = assay: In vitro minimum inhibitory concentration against Methicillin-resistant Staphylococcus aureus (GC 4542); type: functional
# Staphylococcus aureus [16] = assay: In vitro minimum inhibitory concentration against Methicillin-resistant Staphylococcus aureus (GC 1131); type: functional
# Staphylococcus aureus [17] = assay: In vitro minimum inhibitory concentration against Methicillin-resistant Staphylococcus aureus(GC 4544); type: functional
# Staphylococcus aureus [18] = assay: In vitro minimum inhibitory concentration against glycopeptide tntermediate Staphylococcus aureus (GC 3051); type: functional
# Enterococcus faecalis [19] = assay: In vitro minimum inhibitory concentration against vancomycin-susceptible Enterococcus faecalis (GC 4552); type: functional
# Enterococcus faecalis [20] = assay: In vitro minimum inhibitory concentration against vancomycin-susceptible Enterococcus faecalis (GC 4555); type: functional
# Micrococcus luteus = assay: In vitro minimum inhibitory concentration against Micrococcus lutea (GC 4562); type: functional
# Enterococcus faecalis [21] = assay: In vitro minimum inhibitory concentration against vancomycin-susceptible Enterococcus faecalis (GC 4554); type: functional
# Bacillus cereus = assay: In vitro minimum inhibitory concentration against Bacillus cereus (GC 4561) assay organism; type: functional
# Enterococcus faecium [22] = assay: In vitro minimum inhibitory concentration against vancomycin-susceptible Enterococcus faecium (GC 4556); type: functional
# Enterococcus sp. = assay: In vitro minimum inhibitory concentration against Enterococcus species (11 strains, including VRE); type: functional
# Enterococcus faecalis [23] = assay: In vitro minimum inhibitory concentration against vancomycin-susceptible Enterococcus faecalis (GC 2691); type: functional
# [24] = system: Staphylococcus haemolyticus; assay: In vitro minimum inhibitory concentration against methicillin-resistant Coagulase-negative Staphylococci (MRCNS) (GC 4547)); type: functional
# [25] = system: Staphylococcus haemolyticus; assay: In vitro minimum inhibitory concentration against methicillin-resistant Coagulase-negative Staphylococci (MRCNS) (GC 4548)); type: functional
# [26] = system: Staphylococcus haemolyticus; assay: In vitro minimum inhibitory concentration against methicillin-susceptible Coagulase-negative Staphylococci (MSCNS) (GC 6257); type: functional
# Enterococcus faecalis [27] = assay: In vitro minimum inhibitory concentration against vancomycin-resistant Enterococcus faecalis (GC 6189); type: functional
# [28] = system: Staphylococcus haemolyticus; assay: In vitro minimum inhibitory concentration against methicillin-susceptible Coagulase-negative Staphylococci (MSCNS) (GC 4549)); type: functional
# Streptococcus pneumoniae [29] = assay: In vitro minimum inhibitory concentration against Penicillin resistant Streptococcus pneumoniae (GC 1894); type: functional
# Staphylococcus aureus [30] = assay: In vitro minimum inhibitory concentration against Methicillin-resistant Staphylococcus aureus (GC 2216); type: functional
# Enterococcus faecium [31] = assay: In vitro minimum inhibitory concentration against vancomycin-susceptible Enterococcus faecium (GC 4557); type: functional
# Enterococcus faecalis [32] = assay: In vitro minimum inhibitory concentration against vancomycin-resistant Enterococcus faecalis (GC 3059); type: functional
# Staphylococcus aureus [33] = assay: In vitro minimum inhibitory concentration against glycopeptide tntermediate Staphylococcus aureus (GC 3066); type: functional
# Streptococcus pyogenes [34] = assay: In vitro minimum inhibitory concentration against Streptococcus pyogenes (GC 4563)
# Streptococcus agalactiae [35] = assay: In vitro minimum inhibitory concentration against Streptococcus agalactiae (GC4564)
# Streptococcus pneumoniae [36] = assay: In vitro minimum inhibitory concentration against Penicillin susceptible Streptococcus pneumoniae (GC 4565)
# [37] = system: Staphylococcus haemolyticus; assay: In vitro minimum inhibitory concentration against methicillin-resistant Coagulase-negative Staphylococci (MRCNS) (GC 4547); type: functional
# [38] = system: Staphylococcus haemolyticus; assay: In vitro minimum inhibitory concentration against methicillin-resistant Coagulase-negative Staphylococci (MRCNS) (GC 4548); type: functional
# [39] = system: Staphylococcus haemolyticus; assay: In vitro minimum inhibitory concentration against methicillin-resistant Coagulase-negative Staphylococci (MRCNS) (GC 4546); type: functional
# Staphylococcus aureus [40] = assay: In vitro minimum inhibitory concentration against Methicillin-susceptible Staphylococcus aureus(GC 4545); type: functional
# Staphylococcus aureus [41] = assay: In vitro minimum inhibitory concentration against Methicillin-susceptible Staphylococcus aureus (GC 2216); type: functional
# Staphylococcus aureus [42] = assay: In vitro minimum inhibitory concentration against Methicillin-susceptible Staphylococcus aureus (GC 4543); type: functional
# Staphylococcus aureus [43] = assay: In vitro minimum inhibitory concentration against Methicillin-susceptible Staphylococcus aureus(GC 4544); type: functional
# [44] = system: Staphylococcus haemolyticus; assay: In vitro minimum inhibitory concentration against methicillin-susceptible Coagulase-negative Staphylococci (MSCNS) (GC 4549); type: functional
Structure (SMILES),MIC (Streptococcus pneumoniae [1]) [µg/mL],MIC (Enterococcus faecalis [3]) [µg/mL],MIC (Staphylococcus aureus [4]) [µg/mL],MIC (Staphylococcus aureus [5]) [µg/mL],MIC (Enterococcus faecalis [6]) [µg/mL],MIC [8] [µg/mL],MIC (Enterococcus faecium [10]) [µg/mL],MIC (Streptococcus) [µg/mL],MIC (Enterococcus faecium [14]) [µg/mL],MIC (Staphylococcus aureus [15]) [µg/mL],MIC (Staphylococcus aureus [16]) [µg/mL],MIC (Staphylococcus aureus [18]) [µg/mL],MIC (Enterococcus faecalis [19]) [µg/mL],MIC (Enterococcus faecalis [20]) [µg/mL],MIC (Micrococcus luteus) [µg/mL],MIC (Enterococcus faecalis [21]) [µg/mL],MIC (Bacillus cereus) [µg/mL],MIC (Enterococcus faecium [22]) [µg/mL],MIC (Enterococcus sp.) [µg/mL],MIC (Enterococcus faecalis [23]) [µg/mL],also measured
Cc1ccc(Oc2ccc(-c3nc4ccc(C[C@H]5NC(=O)[C@H]([C@@H](C)c6ccccc6)NC(=O)CNC(=O)[C@H](CO)NC(=O)[C@@H]([C@@H](O)[C@@H]6CN=C(N)N6[C@H]6O[C@H](CO)[C@@H](O)[C@H](O)[C@@H]6O)NC(=O)[C@H]([C@H](O)[C@@H]6CN=C(N)N6)NC5=O)cc4o3)cc2)cc1,4,4,8,4,4,4,8,1,4,8,8,4,8,8,1,8,8,8,4,8,MIC (Streptococcus agalactiae [2]): 4 µg/mL; MIC (Staphylococcus aureus [7]): 4 µg/mL; MIC (Staphylococcus aureus [9]): 4 µg/mL; MIC (Streptococcus pneumoniae [11]): 4 µg/mL; MIC [12]: 4 µg/mL; MIC (Streptococcus pyogenes [13]): 1 µg/mL; MIC (Staphylococcus aureus [17]): 8 µg/mL; MIC [24]: 8 µg/mL; MIC [25]: 4 µg/mL; MIC [26]: 2 µg/mL; MIC (Enterococcus faecalis [27]): 8 µg/mL; MIC [28]: 4 µg/mL; MIC (Streptococcus pneumoniae [29]): 4 µg/mL; MIC (Staphylococcus aureus [30]): 8 µg/mL; MIC (Enterococcus faecium [31]): 4 µg/mL; MIC (Enterococcus faecalis [32]): 8 µg/mL; MIC (Staphylococcus aureus [33]): 4 µg/mL
C[C@@H](c1ccccc1)[C@@H]1NC(=O)CNC(=O)[C@H](CO)NC(=O)[C@@H]([C@@H](O)[C@@H]2CN=C(N)N2[C@H]2O[C@H](CO)[C@@H](O)[C@H](O)[C@@H]2O)NC(=O)[C@H]([C@H](O)[C@@H]2CN=C(N)N2)NC(=O)[C@@H](Cc2ccc3nc(SCC(=O)c4ccc(Cl)cc4)oc3c2)NC1=O,8,16,4,2,4,4,8,2,4,4,4,4,2,16,16,16,1,8,2,16,MIC (Streptococcus agalactiae [2]): 4 µg/mL; MIC (Staphylococcus aureus [7]): 2 µg/mL; MIC (Staphylococcus aureus [9]): 2 µg/mL; MIC (Streptococcus pneumoniae [11]): 8 µg/mL; MIC [12]: 1 µg/mL; MIC (Streptococcus pyogenes [13]): 2 µg/mL; MIC (Staphylococcus aureus [17]): 4 µg/mL; MIC [24]: 4 µg/mL; MIC [25]: 2 µg/mL; MIC [26]: 1 µg/mL; MIC (Enterococcus faecalis [27]): 16 µg/mL; MIC [28]: 1 µg/mL; MIC (Streptococcus pneumoniae [29]): 8 µg/mL; MIC (Staphylococcus aureus [30]): 8 µg/mL; MIC (Enterococcus faecium [31]): 2 µg/mL; MIC (Enterococcus faecalis [32]): 32 µg/mL; MIC (Staphylococcus aureus [33]): 4 µg/mL
C[C@@H](c1ccccc1)[C@@H]1NC(=O)CNC(=O)[C@H](CO)NC(=O)[C@@H]([C@@H](O)[C@@H]2CN=C(N)N2[C@H]2O[C@H](CO)[C@@H](O)[C@H](O)[C@@H]2O)NC(=O)[C@H]([C@H](O)[C@@H]2CN=C(N)N2)NC(=O)[C@@H](Cc2ccc3nc(-c4cccc(F)c4)oc3c2)NC1=O,8,32,16,8,16,8,32,4,16,8,8,16,64,64,2,64,64,64,16,32,MIC (Streptococcus pyogenes [34]): 4 µg/mL; MIC (Staphylococcus aureus [7]): 8 µg/mL; MIC (Staphylococcus aureus [9]): 8 µg/mL; MIC [12]: 4 µg/mL; MIC (Streptococcus agalactiae [35]): 8 µg/mL; MIC (Staphylococcus aureus [17]): 8 µg/mL; MIC [24]: 8 µg/mL; MIC [25]: 4 µg/mL; MIC [26]: 4 µg/mL; MIC (Enterococcus faecalis [27]): 32 µg/mL; MIC [28]: 16 µg/mL; MIC (Streptococcus pneumoniae [29]): 16 µg/mL; MIC (Staphylococcus aureus [30]): 8 µg/mL; MIC (Enterococcus faecium [31]): 8 µg/mL; MIC (Enterococcus faecalis [32]): 64 µg/mL; MIC (Streptococcus pneumoniae [36]): 16 µg/mL; MIC (Staphylococcus aureus [33]): 16 µg/mL
CCN1CCN(C(=O)N[C@@H](C(=O)N[C@@H]2C(=O)N3[C@@H]2SC(C)(C)[C@@H]3C(=O)O)c2ccccc2)C(=O)C1=O [PIPERACILLIN],< 0.06,2,> 64,0.5,> 64,4,64,< 0.12,> 64,64,> 64,64,2,1,< 0.06,1,1,1,0.25,2,MIC [37]: > 64 µg/mL; MIC (Streptococcus agalactiae [2]): 0.12 µg/mL; MIC [38]: 16 µg/mL; MIC (Streptococcus pneumoniae [11]): < 0.006 µg/mL; MIC [39]: > 64 µg/mL; MIC (Streptococcus pyogenes [13]): < 0.006 µg/mL; MIC (Staphylococcus aureus [40]): 8 µg/mL; MIC (Staphylococcus aureus [41]): 4 µg/mL; MIC (Staphylococcus aureus [42]): 1 µg/mL; MIC (Staphylococcus aureus [43]): 4 µg/mL; MIC [26]: 4 µg/mL; MIC (Enterococcus faecalis [27]): 2 µg/mL; MIC (Streptococcus pneumoniae [29]): 2 µg/mL; MIC [44]: 32 µg/mL; MIC (Enterococcus faecium [31]): 0.12 µg/mL; MIC (Enterococcus faecalis [32]): 2 µg/mL; MIC (Staphylococcus aureus [33]): 0.5 µg/mL
